This passage reports EC50 results from US20250270212A1, “CHIMERIC COMPOUNDS USEFUL IN TREATING DISEASES” (Padarn Therapeutics, Inc., priority 2021, published 2025).

Each structure is given as a SMILES string. pEC50: −log10 of the molar value. Read-outs that look alike come from different tables or passages of the source.

For test [1], the system named is MDA-MB-231. As to the kind of experiment: Cellular growth inhibition assay (CellTiter-Glo). As to conditions: Homo sapiens. Format: cell-based. The procedure: Example E. Cellular Growth Inhibition Assay
HEK293 (Institute of Cytology Russian Academy of Science), MDA-MB-231 (ATCC, CRM-HTB-26), HCC1395 (ATCC, CRL-2324), HCC1937 (ATCC, CRL-2336), UWB1.289+BRCA1 (ATCC, CRL-2946) were seeded at a density of 500 cells per well in a 384-well clear bottom plate (Greiner Cat #781090) in 45 μl total volume of DMEM (PanEco, Cat #C420) or RPMI (PanEco, Cat #C330) or RPMI/MEBM (Lonza, Cat #CC-3151+CC-4136) with 10% FBS (HyClone, Cat #SV30160.03). Cells were allowed to adhere overnight at 370 C, 5% CO2. 500× compounds solutions in DMSO (Sigma Cat #D2650) were prepared into Cmpnds plate (Diamond Well Plate, Axigen, Cat #P-384-120SQ-C-S) and DMSO only control was included. 1 μl of 500× compounds (Cmpnds plate) was added to 49 μl of culture medium into Dilution plate (Diamond Well Plate, Axigen, Cat #P-384-120SQ-C-S), mixed and then 5 μl of 10× compounds solutions were transferred to cells followed by centrifugation at 100 g for 1 min. Final DMSO concentration was 0.2%. After 3 days of incubation, 10 μl of 1× compounds were added to cells. […]

Test [2] deals with recombinant PARP1 (AA662-1014) protein (Homo sapiens (Human), UniProt P09874). As to the kind of experiment: Tracer displacement fluorescence polarization assay. As to conditions: displacement of AlexaFluor488 tracer from NAD+-binding site, PARP1 25 nM. As for the experimental part: Example B. Tracer Displacement Fluorescence Polarization Assays
Displacement of AlexaFlour488 marked tracer from the NAD+-binding site of recombinant PARP1 (AA662-1014) protein (OriGene, Cat #: AR09368PU-L) was measured in vitro using Fluorescence polarization assay. The reaction was carried out in assay buffer (50 mM TRIS-HCl pH 7.4-7.8, 150 mM NaCl, 10 mM MgCl2, 0.001% Triton-X). 2×PARP1 (final concentration 25 nM) was diluted in 1× Assay buffer and 10 μl of the solution per well was added into 384-well Black Non-Treated Reaction plate (Corning, Cat #4511). Plates were centrifuged for 1 min at 200 g. The compounds were prepared in a 384-well Diamond Well Plate (Axygen, Cat #P-384-120SQ-C-S) as 400× solutions in DMSO and were transferred into Reaction plate using the Biomek FX liquid handling system with intermediate dilution down to 10× working solution in assay buffer in a separate 384-well Diamond Well Plate (Axygen, Cat #P-384-120SQ-C-S) (2 μl per well). Plates were centrifuged for 1 min at 200 g and incubated for 15 min at room temperature in the dark. Then 8 μL per well of 2.5× Tracer AlexaFluor488 (final concentration 1 nM) diluted in 1× Assay buffer was added into Reaction plate. 1× Assay buffer was used to make blank samples for instrument calculations. Plates were incubated for 30 minutes at room temperature in the dark. Fluorescence polarization was measured using Microplate Reader (BMG, ClarioStar Plus). The % tracer displacement was used to calculate the IC50 values. The IC50 values are shown in Table A, wherein “A” corresponds to IC50<0.01 μM, “B” corresponds to 0.01 μM≤IC50<0.1 μM, “C” 0.1 μM≤IC50<[…], and “D” corresponds to […].

In test [3] the target is recombinant Wee1 protein (Homo sapiens (Human), UniProt P30291). As to the kind of experiment: Wee1 enzymatic activity inhibition, ADP-Glo luminescence assay. Type of test: biochemical. As to conditions: recombinant Wee1, PolyE4Y1 substrate, 1 h room temperature. As for the experimental part: Example A. Primary Assay Used to Determine Potency of Wee1 Enzymatic Activity Inhibition
Compound activity was determined using recombinant Wee1 protein (BPS, Cat #40412) and PolyE4Y1 Substrate (Poly(Glu,Tyr) sodium salt, Sigma, Cat #P0275-25MG) in an in vitro enzymatic reaction. The enzymatic assay used to determine activity was a Luminescence assay using a Microplate Reader (BMG, ClarioStar Plus). The enzymatic reaction was carried out in assay buffer (40 mM TRIS-HCl pH 7.4-7.6, 20 mM MgCl2, 0.05 mM DTT, 0.1 mg/ml BSA, 5 mM MnCl2). The compounds were dispensed on a 384 well Diamond Well Plate (Axigen, Cat #P-384-120SQ-C-S) using the Biomek FX liquid handling system at 100× solutions of compounds in DMSO. 2×Wee1-PolyE4Y1 mix (final concentration 0.85 ng/μl of Wee1 and 0.2 μg/μl of PolyE4Y1) was prepared in 1× Assay buffer and 5.5 μl of mixture per well was added into 384w white Reaction plate with NBS (Corning, Cat #4513). 5.5 μl of PolyE4Y1 substrate w/o Wee1 in 1× buffer was used for negative control. Plates were centrifuged for 1 min at 100 g. Next step the Compounds were added to Reaction plate using Biomek station via following steps: 1 μl of 100× compounds (in DMSO) were mixed thoroughly with 49 μl of 2×10 μM ATP in Assay Buffer, then 5.5 μl of this mixture was added to Reaction plate with 5.5 μl of Wee1-PolyE4Y1 mix. Plates were centrifuged for 1 min at 100 g and incubated for 1 h at room temperature. Next 3 μL of ADP-Glo reagent (Promega, ADP-Glo™ Kinase Assay, Cat #V9102) per well was added. Plates were incubated for 30 minutes at room temperature. Then 6 μL of Kinase detection reagent (Promega, ADP-Glo™ Kinase Assay, Cat #V9102) per well was added and the Luminescence was measured using Microplate Reader. The % inhibition was then used to calculate the IC50 values. The IC50 values are shown in Table A, wherein “A” corresponds to IC50<0.01 μM, “B” corresponds to 0.01 μM≤IC50<0.1 μM, “C” 0.1 μM≤IC50<1 μM, and “D” corresponds to […].

Setting [4] is: 120 h, MDA-MB-231, 5 days, read-out: MDA-MB-231 EC50 (μM) 5 days.
The mark [5] stands for this setting: 168 h, MDA-MB-231, 7 days, read-out: MDA-MB-231 EC50 (μM) 7 days.
The mark [6] stands for this setting: 240 h, MDA-MB-231, 10 days, read-out: MDA-MB-231 EC50 (μM) 10 days.

recombinant PARP1 (AA662-1014) protein, sequence (P09874 662-1014): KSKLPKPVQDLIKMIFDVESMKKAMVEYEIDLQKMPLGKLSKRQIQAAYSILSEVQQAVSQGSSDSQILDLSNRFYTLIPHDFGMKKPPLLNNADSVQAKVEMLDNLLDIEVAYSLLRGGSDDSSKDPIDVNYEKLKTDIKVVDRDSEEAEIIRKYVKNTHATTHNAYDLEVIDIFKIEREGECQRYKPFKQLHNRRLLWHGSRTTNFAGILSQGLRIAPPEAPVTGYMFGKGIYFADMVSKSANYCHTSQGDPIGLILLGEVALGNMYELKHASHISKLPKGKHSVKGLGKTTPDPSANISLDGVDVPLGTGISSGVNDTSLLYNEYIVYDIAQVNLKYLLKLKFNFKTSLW
recombinant Wee1 protein, sequence (P30291 whole entry): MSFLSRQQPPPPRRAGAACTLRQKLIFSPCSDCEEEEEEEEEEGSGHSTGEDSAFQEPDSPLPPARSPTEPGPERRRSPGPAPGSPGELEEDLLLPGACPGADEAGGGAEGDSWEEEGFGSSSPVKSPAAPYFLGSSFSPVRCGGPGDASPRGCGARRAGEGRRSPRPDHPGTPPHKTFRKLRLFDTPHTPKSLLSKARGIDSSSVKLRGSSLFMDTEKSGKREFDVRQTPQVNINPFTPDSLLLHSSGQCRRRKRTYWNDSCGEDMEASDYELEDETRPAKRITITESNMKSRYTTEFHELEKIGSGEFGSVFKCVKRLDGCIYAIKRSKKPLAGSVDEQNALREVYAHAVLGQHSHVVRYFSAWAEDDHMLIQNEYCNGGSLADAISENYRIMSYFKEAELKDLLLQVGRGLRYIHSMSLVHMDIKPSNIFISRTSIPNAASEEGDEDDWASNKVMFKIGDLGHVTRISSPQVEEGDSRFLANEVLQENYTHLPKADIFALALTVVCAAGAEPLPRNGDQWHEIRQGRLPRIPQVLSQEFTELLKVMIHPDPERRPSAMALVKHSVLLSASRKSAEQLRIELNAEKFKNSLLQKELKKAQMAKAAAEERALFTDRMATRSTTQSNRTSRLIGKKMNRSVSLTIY

As to `C=CCn1c(=O)c2cnc(Nc3ccc(N4CCN(C(=O)c5cc(Cc6n[nH]c(=O)c7ccccc67)ccc5F)CC4)cc3)nc2n1-c1cccc(C(C)(C)O)c1`, the EC50 in test [1] (setting [4]) amounted to 0.69 µM; in test [1] (setting [5]), 0.66 µM; in test [1] (setting [6]) it was 0.11 µM. Further, the negative-log EC50 (pEC50) in test [2] is > 8.00.
On to `C=CCn1c(=O)c2cnc(Nc3ccc(N4CCN(Cc5cc(Cc6n[nH]c(=O)c7ccccc67)ccc5F)CC4)cc3)nc2n1-c1cccc(C(C)(C)O)n1` [Compound 14, 4-[3-({4-[4-({2-Allyl-1-[6-(1-hydroxy-1-methylethyl)pyridin-2-yl]-3-oxo-2,3-dihydro-1H-pyrazolo[3,4-d]pyrimidin-6-yl}amino)phenyl]piperazin-1-yl}methyl)-4-fluorobenzyl]phthalazin-1(2H)-one], for which the pEC50 in test [3] is 7.00 to 8.00; in test [2], 6.00 to 7.00.
In the same order, the values of `O=C(c1cc(Cc2n[nH]c(=O)c3ccccc23)ccc1F)N1CCN(c2ccc(Nc3ncc4c(=O)n(CCO)n(-c5ccccn5)c4n3)cc2)CC1` [Compound 15, 4-(4-Fluoro-3-{[4-(4-{[2-(2-hydroxyethyl)-3-oxo-1-pyridin-2-yl-2,3-dihydro-1H-pyrazolo[3,4-d]pyrimidin-6-yl]amino}phenyl)piperazin-1-yl]carbonyl}benzyl)phthalazin-1(2H)-one] are 6.00 to 7.00 and > 8.00.
Take `C=CCn1c(=O)c2cnc(Nc3ccc(N4CCN(C(=O)c5cc(Cn6c(=O)[nH]c(=O)c7c(F)cccc76)ccc5F)CC4)cc3)nc2n1-c1cccc(C(C)(C)O)n1` [Compound 16, 1-[[3-[4-[4-[[2-Allyl-1-[6-(1-hydroxy-1-methyl-ethyl)-2-pyridyl]-3-oxo-pyrazolo[3,4-d]pyrimidin-6-yl]amino]phenyl]piperazine-1-carbonyl]-4-fluoro-phenyl]methyl]-5-fluoro-quinazoline-2,4-dione]: the EC50 in test [1] (setting [4]) turned out to be 0.96 µM; in test [1] (setting [5]), 0.8 µM; in test [1] (setting [6]) it was 0.18 µM. Moreover, in test [2], the negative logarithm of the EC50 (pEC50) is > 8.00.
`Cn1c(=O)c2cnc(Nc3ccc(N4CCN(C(=O)c5cc(Cn6c(=O)[nH]c(=O)c7c(F)cccc76)ccc5F)CC4)cc3)nc2n1-c1ncccn1` [Compound 29, 5-Fluoro-1-{4-fluoro-3-[(4-{4-[(2-methyl-3-oxo-1-pyrimidin-2-yl-2,3-dihydro-1H-pyrazolo[3,4-d]pyrimidin-6-yl)amino]phenyl}piperazin-1-yl)carbonyl]benzyl}quinazoline-2,4(1H,3H)-dione]: the negative-log EC50 (pEC50) in test [3] is 6.00 to 7.00; in test [2], > 8.00.
Taken in the same sequence, the figures for `Cn1c(=O)c2cnc(Nc3ccc(N4CCN(Cc5ccc(-c6[nH]c7cc(F)cc8c7c6CCNC8=O)cc5)CC4)cc3)nc2n1-c1ccccn1` [Compound 36, 8-Fluoro-2-{4-[(4-{4-[(2-methyl-3-oxo-1-pyridin-2-yl-2,3-dihydro-1H-pyrazolo[3,4-d]pyrimidin-6-yl)amino]phenyl}piperazin-1-yl)methyl]phenyl}-1,3,4,5-tetrahydro-6H-azepino[5,4,3-cd]indol-6-one] were 7.00 to 8.00 and > 8.00.
Taken in the same sequence, the figures for `COCCn1c(=O)c2cnc(Nc3ccc(N4CCN(Cc5ccc(-c6[nH]c7cc(F)cc8c7c6CCNC8=O)cc5)CC4)cc3)nc2n1-c1ccccn1` [Compound 38, 8-Fluoro-2-(4-{[4-(4-{[2-(2-methoxyethyl)-3-oxo-1-pyridin-2-yl-2,3-dihydro-1H-pyrazolo[3,4-d]pyrimidin-6-yl]amino}phenyl)piperazin-1-yl]methyl}phenyl)-1,3,4,5-tetrahydro-6H-azepino[5,4,3-cd]indol-6-one] were 6.00 to 7.00 and 7.00 to 8.00.
Taken in the same sequence, the figures for `Cn1c(=O)c2cnc(Nc3ccc(N4CCN(Cc5ccc(-c6[nH]c7cc(F)cc8c7c6CCNC8=O)cc5)CC4)cc3)nc2n1-c1cccc(C(C)(C)O)n1` [Compound 40, 8-Fluoro-2-[4-({4-[4-({1-[6-(1-hydroxy-1-methylethyl)pyridin-2-yl]-2-methyl-3-oxo-2,3-dihydro-1H-pyrazolo[3,4-d]pyrimidin-6-yl}amino)phenyl]piperazin-1-yl}methyl)phenyl]-1,3,4,5-tetrahydro-6H-azepino[5,4,3-cd]indol-6-one] were 7.00 to 8.00 and 7.00 to 8.00.
Take `C=CCn1c(=O)c2cnc(N3CCN(Cc4ccc(-c5[nH]c6cc(F)cc7c6c5CCNC7=O)cc4)CC3)nc2n1-c1cccc(C(C)(C)O)n1` [Compound 44, 2-{4-[(4-{2-Allyl-1-[6-(1-hydroxy-1-methylethyl)pyridin-2-yl]-3-oxo-2,3-dihydro-1H-pyrazolo[3,4-d]pyrimidin-6-yl}piperazin-1-yl)methyl]phenyl}-8-fluoro-1,3,4,5-tetrahydro-6H-azepino[5,4,3-cd]indol-6-one]: the values for the pEC50 in test [3] and in test [2] were ≤ 9.00 and > 8.00, respectively.
In the same order, the values of `Cn1c(=O)c2cnc(Nc3ccc(N4CCC(n5cc6cccc(C(N)=O)c6n5)CC4)cc3)nc2n1-c1ccccn1` [Compound 83] are 7.00 to 8.00 and 7.00 to 8.00.
Taken in the same sequence, the figures for `Cn1c2nc(Nc3ccc(N4CCC(n5cc6cccc(C(N)=O)c6n5)CC4)cc3)ncc2c(=O)n1-c1ccccn1` [Compound 86] were 6.00 to 7.00 and 7.00 to 8.00.
In the same order, the values of `Cn1c(=O)c2cnc(Nc3ccc(N4CCC(c5nc6cccc(C(N)=O)c6[nH]5)CC4)cc3)nc2n1-c1ccccn1` [Compound 95, 2-[1-[4-[[2-methyl-3-oxo-1-(2-pyridyl)pyrazolo[3,4-d]pyrimidin-6-yl]amino]phenyl]-4-piperidyl]-3H-benzimidazole-4-carboxamide] are 7.00 to 8.00 and 7.00 to 8.00.
As for `Cn1c2nc(Nc3ccc(N4CCCC(c5nc6cccc(C(N)=O)c6[nH]5)C4)cc3)ncc2c(=O)n1-c1ccccn1` (stereo not drawn) [Compound 97], the pEC50 was 6.00 to 7.00 in test [3] and 7.00 to 8.00 in test [2].
